Measured values taken from the NIST ThermoML archive (doi:10.1016/j.fluid.2005.12.004).
± gives the expanded uncertainty stated by the source.

Conditions: Liquid, Closed cell (Static) method

FC(F)(F)C(F)(F)F [hexafluoroethane]
vapor or sublimation pressure (189.31 K): 73.9 ± 4 kPa | vapor or sublimation pressure (192.63 K): 88.5 ± 4 kPa | vapor or sublimation pressure (247.63 K): 883 ± 4.8 kPa | vapor or sublimation pressure (252.8 K): 1038.2 ± 5 kPa
